In US4468511A, “C-20- And C-23-Modified macrolide derivatives” (Eli Lilly and Company, priority 1983, dated 1984):
In brackets after ≈: the same amount, converted by molar mass. Like-named read-outs stand apart in the source and are kept apart here.

Columns and labels:
[1] = test system: Staphylococcus aureus X400; assay: MIC, standard agar-dilution assay; type: cell-based
Procedure: (§1) The MIC's in Table II were determined by standard agar-dilution assays. The MIC's in Table III were obtained using a conventional broth-dilution microtiter test.

[2] = test system: Haemophilus influenzae 76; assay: MIC, standard agar-dilution assay; type: cell-based; details: agar-dilution; Haemophilus influenzae 76, Ampicillin-resistant strain; read-out: MIC
Procedure: as §1

[3] = test system: Staphylococcus epidermidis EPI2; assay: MIC, standard agar-dilution assay; type: cell-based; details: Staphylococcus epidermidis, EPI2
Procedure: as §1

[4] = test system: Haemophilus influenzae C.L.; assay: MIC, standard agar-dilution assay; type: cell-based
Procedure: as §1

Mycoplasma gallisepticum = assay: MIC, conventional broth-dilution microtiter test; type: cell-based; details: Mycoplasmoides gallisepticum
Method in brief: (§2)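 The Klebsiella MIC was obtained by agar-dilution assay. Other organisms (Pasteurella hemolytica, Pasteurella multocida, Mycoplasma gallisepticum) were tested by conventional broth microdilution.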

Streptococcus sp. 80 = assay: MIC, conventional broth-dilution microtiter test; type: cell-based; details: Streptococcus, SP.80
Procedure: (§3) Certain of the derivatives are active against some gram-negative bacteria, such as Pasteurella species. The MIC's in Table II were determined by standard agar-dilution assays. The MIC's in Table III were obtained using a conventional broth-dilution microtiter test.

Staphylococcus aureus = assay: MIC, conventional broth-dilution microtiter test; type: cell-based
Procedure: as §3

[5] = test system: Pasteurella multocida 22A; assay: MIC, conventional broth-dilution microtiter test; type: cell-based
Method in brief: as §2

[6] = test system: Pasteurella multocida 68C; assay: MIC, conventional broth-dilution microtiter test; type: cell-based
Method in brief: as §2

Mycoplasma hyorhinis = assay: MIC, conventional broth-dilution microtiter test; type: cell-based
Method in brief: (§4)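 Agar plates containing graded compound levels gave the Klebsiella value. Graded broth dilutions in microtiter plates gave the Pasteurella and Mycoplasma values.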

Mycoplasma synoviae = assay: MIC, conventional broth-dilution microtiter test; type: cell-based; details: Mycoplasmopsis synoviae
Method in brief: as §4

[7] = test system: Pasteurella multocida 17E; assay: MIC, conventional broth-dilution microtiter test; type: cell-based
Method in brief: as §2

[8] = test system: Pasteurella hemolytica 23C; assay: MIC, conventional broth-dilution microtiter test; type: cell-based; details: broth-dilution microtiter; Pasteurella hemolytica 23C; read-out: MIC
Method in brief: as §2

[9] = test system: Pasteurella hemolytica 22C; assay: MIC, conventional broth-dilution microtiter test; type: cell-based; details: broth-dilution microtiter; Pasteurella hemolytica 22C; read-out: MIC
Method in brief: as §2

[10] = test system: Pasteurella multocida 60A; assay: MIC, conventional broth-dilution microtiter test; type: cell-based
Method in brief: as §2

[11] = test system: Pasteurella hemolytica 41D; assay: MIC, conventional broth-dilution microtiter test; type: cell-based; details: broth-dilution microtiter; Pasteurella hemolytica 41D; read-out: MIC
Method in brief: as §2

[12] = test system: Pasteurella multocida 40G; assay: MIC, conventional broth-dilution microtiter test; type: cell-based
Method in brief: as §2

[13] = test system: Mycoplasma gallisepticum 41313; assay: MIC, conventional broth-dilution microtiter test; type: cell-based; details: Mycoplasmoides gallisepticum; broth-dilution microtiter; Mycoplasma gallisepticum 41313, Resistant strain; read-out: MIC
Method in brief: as §2

[14] = test system: Mycoplasma gallisepticum 34159; assay: MIC, conventional broth-dilution microtiter test; type: cell-based; details: Mycoplasmoides gallisepticum; broth-dilution microtiter; Mycoplasma gallisepticum 34159, Resistant strain; read-out: MIC
Method in brief: as §2

[15] = test system: Staphylococcus epidermidis EPI1; assay: microbe, parasite or virus in culture; type: cell-based; details: Staphylococcus epidermidis, EPI1
Procedure: as §1

[16] = test system: Staphylococcus aureus S13E; assay: microbe, parasite or virus in culture; type: cell-based
Procedure: as §1

[17] = test system: Streptococcus pyogenes C203; assay: Protection of mice experimentally infected with S. pyogenes C203; type: in vivo; details: mg/kg × 2, doses given 1 and 4 hours postinfection
Procedure: Some of the derivatives of this invention have shown in vivo antimicrobial activity against experimentally-induced infections in laboratory animals. When two doses of test compound were administered to mice experimentally infected with S. pyogenes C203, the activity observed was measured as an ED50 value [effective dose in mg/kg to protect 50% of the test animals: see Warren Wick, et al., J. Bacteriol. 81, 233-235 (1961)].

[18] = test system: Streptococcus Group D X66; assay: MIC, standard agar-dilution assay; type: cell-based
Procedure: as §3

Escherichia coli EC14 = assay: MIC, standard agar-dilution assay; type: cell-based; details: agar-dilution; Escherichia coli EC14; read-out: MIC
Procedure: as §3

[19] = test system: Staphylococcus aureus V41; assay: MIC, standard agar-dilution assay; type: cell-based; details: Staphylococcus aureus, V41
Procedure: as §3

[20] = test system: Klebsiella pneumoniae X26; assay: MIC, standard agar-dilution assay; type: cell-based; details: Klebsiella pneumoniae, X26
Method in brief: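 Method depends on organism. Klebsiella pneumoniae was assayed on agar. Pasteurella spp. and Mycoplasma gallisepticum were assayed in broth microtiter dilution.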

[21] = test system: Klebsiella pneumoniae KAE; assay: MIC, standard agar-dilution assay; type: cell-based; details: agar-dilution; Klebsiella pneumoniae KAE; read-out: MIC
Method in brief: as §2

[22] = test system: Streptococcus pyogenes C203; assay: MIC, standard agar-dilution assay; type: cell-based
Procedure: as §3

[23] = test system: Staphylococcus aureus X1.1; assay: MIC, standard agar-dilution assay; type: cell-based; details: Staphylococcus aureus, X1.1
Method in brief: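 A standard agar-dilution assay was used to test compounds against the Staphylococcus aureus isolate X1.1. Bacterial growth on agar with different compound concentrations was assessed, and the minimum inhibitory concentration was recorded in ug/mL.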

Escherichia coli TEM = assay: MIC, standard agar-dilution assay; type: cell-based; details: agar-dilution; Escherichia coli TEM; read-out: MIC
Method in brief: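 Antibacterial activity toward the gram-negative organism Escherichia coli was assessed by conventional agar dilution. The MIC, reported in ug/mL, is the minimum compound concentration on agar that prevents growth.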

[24] = test system: Streptococcus pneumoniae Park I; assay: MIC, standard agar-dilution assay; type: cell-based; details: Streptococcus pneumoniae
Procedure: as §3

[25] = test system: Streptococcus pyogenes 9960; assay: MIC, standard agar-dilution assay; type: cell-based
Procedure: as §3

[26] = C203, mice, oral, read-out: ED50 Oral
[27] = C203, sc, mice, subcutaneous, read-out: ED50 Subcutaneous

Row | Structure (SMILES) | MIC [2] [µg/mL] | MIC [3] [µg/mL] | MIC (Mycoplasma gallisepticum) [µg/mL] | MIC (Streptococcus sp. 80) [µg/mL] | MIC (Staphylococcus aureus) [µg/mL] | MIC [8] [µg/mL] | MIC [9] [µg/mL] | MIC [11] [µg/mL] | MIC [13] [µg/mL] | MIC [14] [µg/mL] | MIC [15] [µg/mL] | MIC [16] [µg/mL] | ED50 [17, 26] [mg/kg] | ED50 [17, 27] [mg/kg] | MIC (Escherichia coli EC14) [µg/mL] | MIC [19] [µg/mL] | MIC [20] [µg/mL] | MIC [21] [µg/mL] | MIC [23] [µg/mL] | MIC (Escherichia coli TEM) [µg/mL] | other results
1 | CCC1CC(C)C(=O)C=CC(C)=CC(COc2cccc(N(C)C)c2)C(CC)OC(=O)CC(O)C(C)C1OC1OC(C)C(O)C(N(C)C)C1O (stereo not drawn) [Compound 44, 23-O-(m-Dimethylaminophenyl)-20-deoxy-20-dihydro-OMT] | 16 (≈ 22.8 µM) | 0.5 (≈ 0.711 µM) | 3.12 (≈ 4.44 µM) | 3.12 (≈ 4.44 µM) | 1.56 (≈ 2.22 µM) | > 50 | > 50 | > 50 | 12.5 (≈ 17.8 µM) | 12.5 (≈ 17.8 µM) | 1 (≈ 1.42 µM) | 1 (≈ 1.42 µM) | > 50 | > 10 | > 128 | 1 (≈ 1.42 µM) | 32 (≈ 45.5 µM) | > 128 | 1 (≈ 1.42 µM) | > 128 | MIC ([1]; agar-dilution, Staphylococcus aureus X400, Methicillin-resistant strain, read-out: MIC): 2 µg/mL (≈ 2.85 µM); MIC ([4]; agar-dilution, Haemophilus influenzae C.L., Ampicillin-sensitive strain, read-out: MIC): 16 µg/mL (≈ 22.8 µM); MIC ([5]; broth-dilution microtiter, Pasteurella multocida 22A, read-out: MIC): 50 µg/mL (≈ 71.1 µM); MIC ([6]; broth-dilution microtiter, Pasteurella multocida 68C, read-out: MIC): 25 µg/mL (≈ 35.6 µM); MIC (Mycoplasma hyorhinis; broth-dilution microtiter, Mycoplasma hyorhinis, read-out: MIC): 50 µg/mL (≈ 71.1 µM); MIC (Mycoplasma synoviae; broth-dilution microtiter, Mycoplasma synoviae, read-out: MIC): 12.5 µg/mL (≈ 17.8 µM); MIC ([7]; broth-dilution microtiter, Pasteurella multocida 17E, Bovine isolate, read-out: MIC): 50 µg/mL (≈ 71.1 µM); MIC ([10]; broth-dilution microtiter, Pasteurella multocida 60A, Avian isolate, read-out: MIC): 25 µg/mL (≈ 35.6 µM); MIC ([12]; broth-dilution microtiter, Pasteurella multocida 40G, read-out: MIC): 25 µg/mL (≈ 35.6 µM); MIC ([18]; agar-dilution, Streptococcus Group D X66, read-out: MIC): 2 µg/mL (≈ 2.85 µM); MIC ([22]; agar-dilution, Streptococcus pyogenes C203, read-out: MIC): 4 µg/mL (≈ 5.69 µM); MIC [24]: 0.5 µg/mL (≈ 0.711 µM); MIC ([25]; agar-dilution, Streptococcus 9960, read-out: MIC): 2 µg/mL (≈ 2.85 µM)
2 | CCC1OC(=O)CC(O)C(C)C(OC2OC(C)C(O)C(N(C)C)C2O)C(CCOc2ccccc2)CC(C)C(=O)C=CC(C)=CC1COC(=O)CCc1ccccc1 (stereo not drawn) [Compound 33, 20-O-Phenyl-20-dihydro-23-O-phenylpropionyl-OMT] | > 128 | 1 (≈ 1.24 µM) | 0.78 (≈ 0.965 µM) | 0.097 (≈ 0.12 µM) | 0.78 (≈ 0.965 µM) | 25 (≈ 30.9 µM) | 25 (≈ 30.9 µM) | 25 (≈ 30.9 µM) | 25 (≈ 30.9 µM) | 12.5 (≈ 15.5 µM) | 1 (≈ 1.24 µM) | 1 (≈ 1.24 µM) | > 50 | > 10 | > 128 | 1 (≈ 1.24 µM) | 32 (≈ 39.6 µM) | > 128 | 1 (≈ 1.24 µM) | > 128 | MIC ([1]; Staphylococcus aureus, X400): 2 µg/mL (≈ 2.48 µM); MIC ([4]; Haemophilus influenzae): 128 µg/mL (≈ 158 µM); MIC ([5]; Pasteurella multocida, 22A): 3.12 µg/mL (≈ 3.86 µM); MIC ([6]; Pasteurella multocida, 68C): 3.12 µg/mL (≈ 3.86 µM); MIC (Mycoplasma hyorhinis; Mycoplasma): 50 µg/mL (≈ 61.9 µM); MIC (Mycoplasma synoviae): 6.25 µg/mL (≈ 7.73 µM); MIC ([7]; Pasteurella multocida, 17E): 3.12 µg/mL (≈ 3.86 µM); MIC ([10]; Pasteurella multocida, 60A): 3.12 µg/mL (≈ 3.86 µM); MIC ([12]; Pasteurella multocida, 40G): 3.12 µg/mL (≈ 3.86 µM); MIC [18]: 1 µg/mL (≈ 1.24 µM); MIC ([22]; Streptococcus pyogenes, C203): 2 µg/mL (≈ 2.48 µM); MIC [24]: 0.5 µg/mL (≈ 0.619 µM); MIC [25]; 9960: 2 µg/mL (≈ 2.48 µM)
